Legend:
ovariectomized rats [1] = assay: Bone resorption in ovariectomized rats: deoxypyridinoline in urine; assay type: in vivo, rat; details: for Deoxypyridinoline, 5 weeks / Deoxypyridinoline, 8 weeks: OVX rats, 10 mg/kg orally once a day Monday to Friday, urine; for Effect on excretion of deoxypyridinoline in urine (in words): ovariectomized rats, after 5 and 8 weeks administrations
From the text: (§1) Ten weeks old Female Fischer rats (F344/N, Japan SLC, Shizuoka, Japan) were used. Rats were grouped to eliminate the effect of body weight between each group and housed with free access to food and water. Animals were anesthetized with Nembutal (Abbott Laboratories, Chicago, Ill.) and the ovaries were removed. In sham-operated group, ovaries were only touched with tweezers. Administration of compounds was started one day after the operation.
(§2) Estradiol (Sigma-Aldrich, St. Louis, Mo.) was dissolved in DMSO to 150 mg/mL then diluted with sesame oil to 0.15 mg/mL. The compounds in Examples 736 and 814, and Raloxifene were suspended in sesame oil to 5, 5 and 1.5 mg/mL, respectively. Samples were divided into aliquots for daily administration and preserved at −18° C. until use.
(§3) The samples were orally administered at 2 mL/kg. Administration was carried out once a day from Monday to Friday for 8 weeks.
Urine was gathered overnight (17 hours) using the metabolic cage under fasting. The amount of urinary deoxypyridinoline was measured with ELISA kit, Osteorincs-DPD (Sumitomo Seiyaku Biomedical Co., Ltd., Osaka, Japan) and evaluated as total amount produced in 17 hours or as the amount per 1 mg of creatinine.

[2] = biological target: T1, estrogen receptor derived from bovine uterus (Bos taurus, UniProt P49884); assay: In vitro estrogen receptor binding assay; details: read-out: Estrogen receptor binding affinity: Ki
T1 construct: estrogen receptor derived from bovine uterus was diluted with the assay buffer solution so that 10 to 20 μg total protein was present; from tissue; host or cells: bovine uterus
T1 sequence (P49884 1-596): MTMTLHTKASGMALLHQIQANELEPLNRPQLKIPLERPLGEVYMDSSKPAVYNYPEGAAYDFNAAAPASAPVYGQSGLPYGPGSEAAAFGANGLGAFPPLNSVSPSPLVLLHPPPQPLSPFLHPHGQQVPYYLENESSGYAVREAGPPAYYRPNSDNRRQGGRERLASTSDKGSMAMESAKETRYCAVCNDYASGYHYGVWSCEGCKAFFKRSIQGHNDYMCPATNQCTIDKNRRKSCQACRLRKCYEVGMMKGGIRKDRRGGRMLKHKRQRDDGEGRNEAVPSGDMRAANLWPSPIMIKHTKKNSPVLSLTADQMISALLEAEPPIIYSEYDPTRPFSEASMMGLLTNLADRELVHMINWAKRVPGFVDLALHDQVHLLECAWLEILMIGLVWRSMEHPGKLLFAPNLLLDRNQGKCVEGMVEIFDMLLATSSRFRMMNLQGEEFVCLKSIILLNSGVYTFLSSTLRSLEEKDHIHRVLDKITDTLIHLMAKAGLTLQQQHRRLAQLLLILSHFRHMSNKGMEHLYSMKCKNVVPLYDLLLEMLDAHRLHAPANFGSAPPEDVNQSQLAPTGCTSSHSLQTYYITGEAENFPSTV
Description: The binding affinity of the compound according to the present invention to estrogen receptor was measured using an in vitro estrogen receptor binding assay. The binding affinity measures the ability of the compound according to the present invention to remove [^3H]-estradiol from estrogen receptor derived from bovine uterus. The following materials were used in this assay: (1) the assay buffer solution was 20 mM Tris/HCl (pH 7.5) containing 1 mM dithiothreitol (DTT), 1 mM EDTA and 10% glycerol; (2) radioactive ligand was [^3H]-estradiol purchased from Amersham Life Science; (3) the cold ligand was diethylstilbestrol purchased from sigma (Sigma); and (4) the estrogen receptor was derived from bovine uterus. The compound to be tested was prepared as a 10% DMSO solution. [^3H]-estradiol was dissolved in the assay buffer solution so as to obtain a final concentration of 1 nM. […] Each plate contains total binding, non-specific binding and the binding which were not inhibited by various concentrations of the compound. The plate was incubated for 1 hour at room temperature. […] These mixtures were centrifuged, and the supernatant thereof was evaluated for its radioactivity using a liquid scintillation counter. Specific binding was calculated by subtracting non-specific binding dpm (counts remaining in the supernatant obtained by centrifugal separation of a reaction mixture containing estrogen receptor derived from bovine uterus, radioactive ligand and excess cold ligand) from the total binding dpm (counts remaining in the supernatant obtained by centrifugal separation of a reaction mixture containing estrogen receptor derived from bovine uterus and radioactive ligand only). The effectiveness of the compound was evaluated by Ki. […] C is the concentration of [^3H]-estradiol in the reaction mixture, and Kd is the [^3H]-estradiol dissociation constant. The Kd was determined by Scatchard analysis. That is to say, various concentrations of [^3H]-estradiol were used to measure the concentration of specifically bound [^3H]-estradiol, which served as the horizontal axis, the value which was obtained by dividing the concentration of specifically bound [^3H]-estradiol by the concentration [^3H]-estradiol not bound to the receptor served as the vertical axis to produce a plot, and the negative value of the inverse of the slope of the resulting straight line was used as Kd.

ovariectomized rats [3] = assay: Ovariectomized rats: uterus wet weight; assay type: in vivo, rat; details: rat, in vivo
From the text: as §1, §2, §3
After animals were sacrificed by decapitation, uterus was removed and adipose tissue and vagina was separated from uterus prior to uterus weight measurement.

[4] = system: MCF-7 breast cancer cells; assay: MCF-7 growth analysis (estrogen agonist and antagonist activity, MTT assay); assay type: cell-based; details: Homo sapiens; for activity at 0.1 µM: MCF7, MCF-7, 72 hours, growth rate of diluent control = 100, of 17β-estradiol (1 nM) = 200, read-out: Agonist activity: growth rate (100 nM test compound); for IC50: MCF7, MCF-7 growth with 17β-estradiol (10 pM) present simultaneously, 72 hours
Description: Test Example 2 determines the estrogen agonist and antagonist activities of the compound according to the present invention in reproduction system cells. […] The present test was carried out according to the following procedures. MCF-7 breast cancer cells were cultured in the preservation medium until the compound evaluation. The preservation medium is the MEM (minimum essential medium, phenol red-free, Gibco, ##51200-038) supplemented with 10% (volume/volume) fetal bovine serum (FBS), 2 mM L-glutamine, 1 mM sodium pyruvate, non-essential amino acids (0.1 mM, Gibco, #15240-062), and antibiotic-antimycotic solution ( 1/50 of culture medium volume, Gibco). Five days prior to analysis, the preservation medium was exchanged with analytical medium to which 10% charcoal-stripped fetal bovine serum (charcoal-FBS) was added instead of 10% FBS, so as to deprive the MCF-7 cells of endogenous steroids. Twenty-four hours after exchange to the analytical medium, the MCF-7 cells were removed from the preservation flask using cell isolation medium (trypsin-EDTA solution, Gibco). The cells were washed with analytical medium once, and cell suspension at 50,000 cell/ml was prepared using the analytical medium. The prepared cell suspension was added to a 96 well flat-bottomed microculture at […] (5,000 cells) per well, the cells were cultured in a 5% CO2 incubator for 24 hours at 37° C., to equilibrate the cells after cell transfer. […] The cells were further cultured in the 5% CO2 incubator for 72 hours at 37° C. After culturing, the cell growth was examined by the MTT assay. MTT assay was carried out as the following protocols. MTT solution at 8 mg/ml (MTT dissolved in phosphate saline water buffer) was added to the microculture at 10 μl/well, and the cells were cultured in the 5% CO2 incubator for 30 minutes at 37° C. Thereafter, resulting from the reduction of MTT by the cells, formazan crystals were dissolved by adding a dissolution buffer (400 g/l of an aqueous solution of SDS (50%) and dimethylformamide (50%)) to the microculture at 100 μl/well, and incubated the microculture for more than 4 hours in the dark. For each well of the microculture, the optical density at 590 nm due to the dissolved formazan crystals was measured.

ovariectomized rats [5] = assay: Ovariectomized rats: bone density of femur and fifth lumbar vertebrae; assay type: in vivo, rat; details: for Bone Mineral Density, Distal femur / Bone Mineral Density, Lumber 5 / Bone Mineral Density, Whole femur: OVX rats, 10 mg/kg orally, 8 weeks; for Effect on bone mineral density of femur and fifth lumbar vertebrae (in words): ovariectomized rats, eight weeks after ovariectomy, compared with sham-operated rats
From the text: as §1, §2, §3
After animals were sacrificed by decapitation, left femur and the fifth lumbar vertebrae were removed. The bone density was measured by using QDR-1000/W (Ho logic Inc., Bedford, Mass.).

In the case of COc1ccc([C@@H]2CCc3cc(O)ccc3C2)c(N(CCO)Cc2ccc(OCC(C)(C)N(C)C)cc2)c1 [Example 814, (R)-6-{2-[[4-(2-Dimethylamino-2-methylpropoxy)benzyl](2-hydroxyethyl)amino]-4-methoxyphenyl}-5,6,7,8-tetrahydronaphthalen-2-ol], the “Deoxypyridinoline, 5 weeks” value (ovariectomized rats [1]) is reported as 11.22 ± 1.12 nM/mg/dl, the “Deoxypyridinoline, 8 weeks” value (ovariectomized rats [1]) is reported as 15.48 ± 0.98 nM/mg/dl and the “Effect on excretion of deoxypyridinoline in urine (in words)” value (ovariectomized rats [1]) is reported as “significantly attenuated the excretion of deoxypyridinoline”. The Ki [2] was 8.4 nM, the “Effect on uterus wet weight (in words)” value (ovariectomized rats [3]) was “slightly increased uterus wet weight to the same level” and the activity at 0.1 µM [4] was 95%. For the same compound, the IC50 [4] was 3.23 nM, the “Bone Mineral Density, Distal femur” value (ovariectomized rats [5]) was 0.248 ± 0.002 g/cm^2 and the “Bone Mineral Density, Lumber 5” value (ovariectomized rats [5]) was 0.159 ± 0.001 g/cm^2. The “Bone Mineral Density, Whole femur” value (ovariectomized rats [5]) was 0.237 ± 0.002 g/cm^2 and the “Effect on bone mineral density of femur and fifth lumbar vertebrae (in words)” value (ovariectomized rats [5]) was “preserved bone mineral density at the level in sham-operated rats”.
CCNCCc1ccc(CN(CC)c2cc(OC)ccc2[C@@H]2CCc3cc(O)ccc3C2)cc1 [Example 736, (R)-6-{2-{Ethyl[4-(2-ethylaminoethyl)benzyl]amino}-4-methoxyphenyl}-5,6,7,8-tetrahydronaphthalen-2-ol] was tested, and the “Deoxypyridinoline, 5 weeks” value (ovariectomized rats [1]) was 10.48 ± 0.52 nM/mg/dl, the “Deoxypyridinoline, 8 weeks” value (ovariectomized rats [1]) was 15.33 ± 0.78 nM/mg/dl and the “Effect on excretion of deoxypyridinoline in urine (in words)” value (ovariectomized rats [1]) was “significantly attenuated the excretion of deoxypyridinoline”. For the same compound, the Ki [2] was 6 nM, the “Effect on uterus wet weight (in words)” value (ovariectomized rats [3]) was “did not influence the wet weight of the uterus at all” and the activity at 0.1 µM [4] was 73%. For the same compound, the IC50 [4] was 0.74 nM, the “Bone Mineral Density, Distal femur” value (ovariectomized rats [5]) was 0.256 ± 0.002 g/cm^2 and the “Bone Mineral Density, Lumber 5” value (ovariectomized rats [5]) was 0.156 ± 0.003 g/cm^2. The “Bone Mineral Density, Whole femur” value (ovariectomized rats [5]) was 0.241 ± 0.002 g/cm^2 and the “Effect on bone mineral density of femur and fifth lumbar vertebrae (in words)” value (ovariectomized rats [5]) was “preserved bone mineral density at the level in sham-operated rats”.
